The values below are quoted from earlier work in patent US20050053970A1, “Methods and compositions for identifying peptide aptamers capable of altering a cell phenotype” (priority 2001, published 2005).

Data set [1] concerns the target α/δ and α/γ sites in T. californica electric organ (Tetronarce californica, UniProt P02710+P02714+P02718).
A further data set concerns mammals. The following applies: in vivo.
Data set [2] deals with T1, mutant human growth hormone (Thr175 Gly-hGH) and extracellular domain of the hGH receptor (Trp104 Gly-hGHbp) (Homo sapiens, UniProt P01241+P10912, T201G/W122G).
T1 construct: the extracellular domain of the hGH receptor (Trp104 Gly-hGHbp)
Particulars: Thr175 Gly-hGH with Trp104 Gly-hGHbp.

On to ICCNPACGPLYSC-NH2 [α-conotoxin SI], for which, in data set [1], the “activity in T. californica” value is given as “active”; the “discrimination between the α/δ and α/γ sites” value is reported as “does not distinguish”. In addition, in the data set with mammals, the effect in mammals entry is “essentially no effect”.
Consider ECCNPACGRHYSC-NH2 [α-conotoxin GI], for which the “discrimination between the α/δ and α/γ sites” value in data set [1] is listed as “finds the α/δ site preferable to the α/γ site”. The effect in mammals result with mammals is listed as “lethal to mammals at low concentrations”.
For `Clc1cnc(C(Cl)(Cl)Cl)[nH]1` [5-chloro-2-trichloromethylimidazole], the “increase of the affinity of the mutant hormone for its receptor” value in data set [2] was “more than 1000 fold”.
